Tests used:
[1] = tested on: non-malignant murine AML-12 hepatocytes; assay: Growth inhibition, crystal violet staining, AML-12; assay type: cell-based
Experimental: (§1) The well-differentiated p53 wild-type human hepatoblastoma cell line HepG2 (ATCC# 8065) and the highly differentiated p53 mutated human hepatocellular carcinoma cell line Huh-7 (JCRB#0403) were grown in RPMI 1640 medium supplemented with 10% fetal bovine serum and 100 U/mL penicillin and […] streptomycin. Murine AML-12 hepatocytes were obtained from ATCC (CRL-2254) and grown in DMEM/F-12 Glutamax medium supplemented with 10% fetal bovine serum, 10 µg/mL insulin, 5.5 µg/mL transferrin, 5 ng/mL selenium (Gibco ITS-G 100X) and 40 ng/mL dexamethasone (Sigma-Aldrich). All cell lines were incubated in a 37 °C, 5% CO2, 95% humidified atmosphere.
(§2) Treatment-induced changes in cell number were evaluated by crystal violet staining, as previously described. Briefly, 1.500 cells per well were seeded in 96-well plates for 24 h at 37 °C, 5% CO2. For the experiments with HepG2 and Huh-7 cell lines, cells were incubated with rising concentrations (0–20 µM) of the new compounds (1a–1o) for 48 h. AML12-cells were treated with compounds 1a, 1b, 1c, 1e, 1i and 1j for 48 h and at concentrations ranging from 0.5–64 µM. Thereafter, the cells were fixed with 1% glutaraldehyde and stained with 0.1% crystal violet (Sigma-Aldrich). The unbound dye was removed by rinsing with water. Bound crystal violet was solubilized with 0.2% Triton X-100 (Sigma-Aldrich). Light extinction of crystal violet, which increases linearly with cell number, was analyzed at 570 nm using an ELISA-Reader (Dynex Technologies, Denkendorf, Germany). All experiments were carried out in duplicate or triplicate.

[2] = tested on: panel of 43 human protein kinases; assay: Enzymatic kinase panel screening; assay type: biochemical; details: 10 µM compound
Experimental: The kinase inhibiting potency of compound 1a, 1b and 1c (10 µM) was screened in a cell-free kinase assay, which consisted of a custom panel of 43 human protein kinases for 1c (listed in Figure 5A), as well as a subpanel of six kinases for 1a and 1b (Figure 5B). The initial panel was chosen to screen the lead compound 1c based on the union of two strategies. A total of 29 kinases were selected based on the correlated results of three in silico target prediction methods including structure- as well as ligand-based techniques and 20 kinases because of their relevance for HCC (note that six kinases were part of both strategies).
The assay was performed by Eurofins KinaseProfilerTM service (Eurofins, France) and the determination of enzymatic activity was assessed as previously described. Additionally, an IC50 determination of compound 1c against the VEGFR-2 was performed with a concentration range of 0.003 to 30 µM.

human Huh-7 HCC cells = assay: Growth inhibition, crystal violet staining, Huh-7; assay type: cell-based; details: 48 h incubation, mean ± SD, read-out: Anti-proliferative activity IC50, Huh-7
Experimental: as §1, §2

[3] = tested on: human HepG2 hepatoblastoma cells; assay: Growth inhibition, crystal violet staining, HepG2; assay type: cell-based; details: 48 h incubation, mean ± SD, read-out: Anti-proliferative activity IC50, HepG2
Experimental: as §1, §2

COc1ccc(C=C(C#N)c2cccs2)cc1O [Compound 1c, 2-[1-Cyano-2-(3-hydroxy-4-methoxyphenyl)-(E)-ethenyl)]-thiophene]
IC50 against AML-12 hepatocytes relative to hepatoma cells ([1]; AML-12 vs hepatoma cells (HepG2, Huh-7), 48 h): up to 10 fold | IC50 ([1]; Mus musculus, AML12, 48 h incubation, mean ± SD, read-out: Anti-proliferative activity IC50, AML-12): 1.81 ± 0.31 µM | number of the 43 kinase targets inhibited by more than 50% [2]: six | IC50 (human Huh-7 HCC cells): 0.32 ± 0.15 µM | IC50 [3]: 0.55 ± 0.26 µM

Source: paper PMC7956560, “New 3-Aryl-2-(2-thienyl)acrylonitriles with High Activity Against Hepatoma Cells” (International Journal of Molecular Sciences, 2021)
